Blank lines part the entries; values can stand above or below the molecule they belong to.
Tests used:
[1] = biological target: SMb20036-CY (Sinorhizobium meliloti, UniProt Q92XC3); experiment: biochemical; type: binding; conditions: compounds similar in structure to D-quinic acid
Procedure: (§1) Ligand-induced FRET ratio changes of purified FRET biosensor were screened using a LS55 luminescence spectrometer (PerkinElmer Instruments). Excitation (ex.) was at (λ/slit width) 433/10 nm (CFP) or 549/10 nm (OFP). Emission (em.) was measured at 475/10 nm (CFP), 527/10 nm (YFP), 573/10 nm (OFP) and 644/10 nm (RFP). To confirm that Aphrodite and mKate2 were properly folded their fluorescence was individually tested by direct excitation at 510/6 nm and 588/10 nm respectively.
(§2) Affinity constants (Kd) of FRET biosensors with specific ligands were established using a monochromator microplate reader (Safire, Tecan, Switzerland; CFP ex.: (λ\bandwidth) 433/12 nm, em.: 475/12 nm; YFP em.: 527/12 nm. OFP ex.: 533/12 nm, em.: 563/12 nm; RFP em.: 615/12 nm). Proteins were diluted to give relative fluorescence units (RFU) in the detection range of 30,000 to 50,000 RFU at a gain of 90 to 100, and then were added to a dilution series (10^−3 to 10^−11 M) of ligand in Tris-HCl (pH 8.5, 50 mM). The change in relative emission intensities at 527/477 nm (YFP/CFP) or 615/563 nm (RFP/OFP) was used to determine Kd by fitting the titration curves to a single-site-binding isotherm: [drawing 1] with: R, ratio; Rapo, ratio without ligand; Rsat, ratio at saturation of ligand; n, number of equal binding sites; [L], ligand concentration. Non-linear regression was used to fit the curves using SigmaPlot 11 (Systat Software Inc.) (Hill equation, 4 Parameters, b = 1). All measurements were done in quadruplicate.

[2] = biological target: T1, eCFP-MglB-Aphrodite fusion protein (Escherichia coli, UniProt P0AEE5, F39A); conditions: MglB sensors, depended on linker length; cited from earlier work
T1 construct: MglB core from pFLIPglu600µΔ13 - SpeI - BD cloning in pCYS - For; made in house; host or cells: E. coli Rosetta2
T1 sequence (P0AEE5 24-332 F39A limits assumed): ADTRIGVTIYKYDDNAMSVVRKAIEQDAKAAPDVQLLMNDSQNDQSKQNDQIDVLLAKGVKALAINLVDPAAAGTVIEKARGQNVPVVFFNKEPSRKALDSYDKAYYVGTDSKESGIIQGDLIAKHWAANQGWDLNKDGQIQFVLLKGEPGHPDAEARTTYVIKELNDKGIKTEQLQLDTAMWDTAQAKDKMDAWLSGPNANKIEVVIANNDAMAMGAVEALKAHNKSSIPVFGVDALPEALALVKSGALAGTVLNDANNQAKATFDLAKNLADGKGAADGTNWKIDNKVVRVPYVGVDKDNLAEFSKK

[3] = biological target: T2, RL2376-CY (Rhizobium leguminosarum, UniProt Q1MGQ3); experiment: FRET biosensor RL2376-CY, in vitro ligand titration; type: binding
T2 sequence (Q1MGQ3 24-320): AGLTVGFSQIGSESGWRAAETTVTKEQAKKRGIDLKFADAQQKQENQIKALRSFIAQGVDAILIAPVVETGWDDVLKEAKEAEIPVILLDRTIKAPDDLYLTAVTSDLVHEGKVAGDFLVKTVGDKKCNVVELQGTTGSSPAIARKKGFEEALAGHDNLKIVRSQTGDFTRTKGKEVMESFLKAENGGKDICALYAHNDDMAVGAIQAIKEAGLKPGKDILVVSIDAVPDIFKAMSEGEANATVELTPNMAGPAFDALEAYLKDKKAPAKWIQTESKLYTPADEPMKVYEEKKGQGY
Procedure: as §1, §2

[4] = biological target: T1, eCFP-MglB-Aphrodite fusion protein; experiment: Validation of pCYS with glucose binding protein MglB FRET fusion; conditions: purified eCFP-MglB-Aphrodite from pLMB240 (pCYS)
Procedure: The FRET vector pCYS was tested by inserting the glucose binding protein from Escherichia coli (MglB). This SBP was reported to have a FRET Δ ratio ranging from −8% to −28% upon binding of glucose that depended on linker length. The purified eCFP-MglB-Aphrodite fusion protein from pLMB240 (Table S1) gave a FRET Δ ratio of −19%, thus validating this vector and the choice of short linkers (of four and three amino acids) which we had incorporated into its design (Fig. 1B).
as §1

[5] = biological target: SMc04259-CY (Sinorhizobium meliloti, UniProt Q92P64); experiment: FRET biosensor SMc04259-CY, in vitro ligand titration; type: binding; conditions: SMc04259-CY
Sequence of SMc04259-CY (Q92P64 entry or part of it): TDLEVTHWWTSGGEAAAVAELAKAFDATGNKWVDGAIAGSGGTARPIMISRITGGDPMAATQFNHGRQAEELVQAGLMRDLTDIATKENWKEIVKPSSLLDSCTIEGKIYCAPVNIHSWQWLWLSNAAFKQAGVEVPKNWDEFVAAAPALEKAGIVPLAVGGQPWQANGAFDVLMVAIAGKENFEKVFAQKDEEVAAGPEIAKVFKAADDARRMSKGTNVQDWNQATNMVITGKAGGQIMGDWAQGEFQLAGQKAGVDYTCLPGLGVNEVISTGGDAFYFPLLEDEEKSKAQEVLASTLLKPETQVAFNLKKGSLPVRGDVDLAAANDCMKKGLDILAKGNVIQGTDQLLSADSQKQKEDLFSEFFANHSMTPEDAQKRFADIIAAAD
Procedure: as §1, §2

[6] = biological target: T3, SMb20712-CY (Sinorhizobium meliloti, UniProt Q926E6); experiment: FRET biosensor SMb20712-CY, in vitro ligand titration; type: binding
T3 sequence (Q926E6 21-309): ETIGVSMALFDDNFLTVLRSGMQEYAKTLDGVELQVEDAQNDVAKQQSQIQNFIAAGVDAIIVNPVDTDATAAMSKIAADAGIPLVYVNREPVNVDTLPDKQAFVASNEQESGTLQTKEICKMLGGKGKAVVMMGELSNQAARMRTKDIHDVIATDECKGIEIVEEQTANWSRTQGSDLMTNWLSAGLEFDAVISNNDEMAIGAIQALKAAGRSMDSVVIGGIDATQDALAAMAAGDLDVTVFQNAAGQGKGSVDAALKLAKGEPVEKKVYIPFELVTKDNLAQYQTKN
Procedure: as §1, §2

[7] = biological target: T4, rcc03024-CY (DctP) (Rhodobacter capsulatus, UniProt P37735); experiment: FRET biosensor rcc03024-CY, in vitro ligand titration; type: binding; conditions: for Kd: pCYS (pLMB414), Tris-HCl pH 8.5
T4 construct: made in house; host or cells: E. coli Rosetta2
T4 sequence (P37735 27-333): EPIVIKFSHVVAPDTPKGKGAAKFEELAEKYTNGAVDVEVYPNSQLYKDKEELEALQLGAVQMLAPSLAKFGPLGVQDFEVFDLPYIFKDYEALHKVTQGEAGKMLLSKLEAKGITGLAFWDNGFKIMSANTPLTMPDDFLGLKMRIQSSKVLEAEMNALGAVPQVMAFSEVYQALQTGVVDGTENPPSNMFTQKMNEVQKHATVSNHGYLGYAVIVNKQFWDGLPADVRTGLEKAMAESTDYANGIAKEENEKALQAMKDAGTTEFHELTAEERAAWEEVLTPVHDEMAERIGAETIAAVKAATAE
From the text: Ligand-induced FRET ratio changes of purified FRET biosensor were screened using a LS55 luminescence spectrometer (PerkinElmer Instruments).
Non-linear regression was used to fit the curves using SigmaPlot 11 (Systat Software Inc.) (Hill equation, 4 Parameters, b = 1). All measurements were done in quadruplicate.

[8] = biological target: SMc02774-CY (Sinorhizobium meliloti, UniProt Q92TD7); experiment: FRET biosensor SMc02774-CY, in vitro ligand titration; type: binding; conditions: SMc02774-CY
Sequence of SMc02774-CY (Q92TD7 entry or part of it): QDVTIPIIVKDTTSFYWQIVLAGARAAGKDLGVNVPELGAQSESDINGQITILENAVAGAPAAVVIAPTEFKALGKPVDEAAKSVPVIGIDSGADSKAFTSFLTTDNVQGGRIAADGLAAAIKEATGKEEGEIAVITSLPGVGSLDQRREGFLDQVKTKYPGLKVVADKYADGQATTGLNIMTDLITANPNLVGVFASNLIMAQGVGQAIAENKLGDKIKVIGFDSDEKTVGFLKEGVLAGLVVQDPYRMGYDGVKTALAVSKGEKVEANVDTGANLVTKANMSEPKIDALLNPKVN
Procedure: as §1, §2

[9] = biological target: T5, rcc03024-RO (Rhodobacter capsulatus, UniProt P37735); experiment: rcc03024-RO, FRET ratio change on ligand; type: binding
T5 construct: made in house; host or cells: E. coli Rosetta2
T5 sequence (P37735 27-333): T4 sequence (P37735 27-333)
Procedure: as §1
as §2, with “Non-linear regression was used to fit the curves using SigmaPlot 11 (Systat Software Inc.) (Hill equation, 4 Parameters, b = 1). All measurements were done in quadruplicate.” left out

[10] = biological target: SMc02324-CY (Sinorhizobium meliloti, UniProt Q92S11); experiment: FRET biosensor SMc02324-CY, in vitro ligand titration; type: binding; conditions: SMc02324-CY
Sequence of SMc02324-CY (Q92S11 entry or part of it): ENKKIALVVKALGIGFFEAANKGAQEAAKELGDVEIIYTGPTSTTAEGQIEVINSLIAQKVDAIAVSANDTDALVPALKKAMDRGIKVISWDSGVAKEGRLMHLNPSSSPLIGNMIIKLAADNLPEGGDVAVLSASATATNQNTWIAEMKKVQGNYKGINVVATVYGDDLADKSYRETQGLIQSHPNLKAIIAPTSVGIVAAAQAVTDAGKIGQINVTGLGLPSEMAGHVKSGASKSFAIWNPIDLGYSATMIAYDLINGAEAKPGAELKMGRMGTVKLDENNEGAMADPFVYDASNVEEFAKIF
Procedure: as §1, §2

[11] = test system: SMc04259-RO; experiment: SMc04259-RO, FRET ratio change on ligand; type: binding, Sinorhizobium meliloti
Procedure: as §1
as §2, with “Non-linear regression was used to fit the curves using SigmaPlot 11 (Systat Software Inc.) (Hill equation, 4 Parameters, b = 1). All measurements were done in quadruplicate.” left out

Sequence of SMb20036-CY (Q92XC3 entry or part of it): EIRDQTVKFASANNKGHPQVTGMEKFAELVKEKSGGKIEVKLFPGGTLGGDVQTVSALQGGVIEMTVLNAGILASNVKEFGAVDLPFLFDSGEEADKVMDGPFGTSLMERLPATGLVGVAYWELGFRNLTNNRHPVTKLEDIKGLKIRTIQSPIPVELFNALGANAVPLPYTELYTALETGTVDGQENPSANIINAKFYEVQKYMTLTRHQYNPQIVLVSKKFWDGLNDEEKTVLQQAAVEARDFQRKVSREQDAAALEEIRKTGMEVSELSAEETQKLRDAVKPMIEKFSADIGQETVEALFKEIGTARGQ

Molecule: O=C(O)c1cc(O)c(O)c(O)c1 [gallic acid]
- change in FRET ratio on addition of compound [1]: no change in FRET ratio

Molecule: OC[C@H]1OC(O)[C@H](O)[C@@H](O)[C@@H]1O (some centres unmarked) [glucose]
- FRET Δ ratio upon binding of glucose [2]: −8% to −28%
- change in FRET ratio on addition of compound [3]: no change in FRET ratio
- FRET Δ ratio [4]: −19%
- change in FRET with compound [5]: no change in FRET

Molecule: O=P(O)(O)O[C@@H]1[C@H](O)[C@H](O)[C@@H](OP(=O)(O)O)[C@H](OP(=O)(O)O)[C@H]1O [inositol 1,4,5-trisphosphate]
- reaction of biosensor with compound (FRET) [6]: did not react

Molecule: OC[C@H]1O[C@@H](O[C@H]2[C@H](O)[C@@H](O)[C@H](O)O[C@@H]2CO)[C@H](O)[C@@H](O)[C@H]1O [lactose]
- change in FRET with compound [5]: no change in FRET

Molecule: O=C(O)/C=C\C(=O)O [maleate]
- change in FRET ratio on addition of compound [7]: no change in FRET ratio

Molecule: O=C(O)CC(=O)O [malonate]
- change in FRET ratio on addition of compound [7]: no change in FRET ratio

Molecule: OC[C@H]1O[C@H](O[C@H]2[C@H](O)[C@@H](O)[C@H](O)O[C@@H]2CO)[C@H](O)[C@@H](O)[C@@H]1O [maltose]
- change in FRET with compound [5]: no change in FRET

Molecule: OC[C@H]1OC(O)[C@@H](O)[C@@H](O)[C@@H]1O (some centres unmarked) [mannose]
- change in FRET with compound [5]: no change in FRET

Molecule: O[C@H]1[C@H](O)[C@@H](O)[C@H](O)[C@@H](O)[C@H]1O [myo-inositol]
- Kd ([6]; pCYS (pLMB319), Tris-HCl pH 8.5): 470 nM

Molecule: O=C(O)CC(=O)C(=O)O [oxaloacetate]
- Kd [7]: 16000 nM

Molecule: O=P(O)(O)O[C@H]1[C@H](OP(=O)(O)O)[C@@H](OP(=O)(O)O)[C@H](OP(=O)(O)O)[C@@H](OP(=O)(O)O)[C@H]1OP(=O)(O)O [phytic acid]
- reaction of biosensor with compound (FRET) [6]: did not react

Molecule: CC(=O)C(=O)O [pyruvate]
- change in FRET ratio on addition of compound [7]: no change in FRET ratio
- reaction of biosensor with compound (FRET) [8]: did not react

Molecule: O=C(O)CCC(=O)O [succinate]
- ΔFRET on saturation (%) ([7]; change in FRET ratio on ligand binding): −2.7±0.2%
- Kd [7]: 36 nM
- change in FRET ratio on binding ligand [9]: no change in FRET ratio

Molecule: O=C(CO)[C@@H](O)[C@@H](O)[C@H](O)CO [tagatose]
- reaction of biosensor with compound (FRET) [10]: did not react

Molecule: O=C[C@H](O)[C@@H](O)[C@H](O)CO [xylose]
- change in FRET with compound [5]: no change in FRET

- change in FRET ratio on addition of compound [7]: no change in FRET ratio
Molecule: O=C(O)CCC(=O)C(=O)O [α-ketoglutarate]

Molecule: gentiobiose
- change in FRET ratio on binding ligand [11]: no change in FRET ratio

— publication PMC3454389, “Mining the Sinorhizobium meliloti Transportome to Develop FRET Biosensors for Sugars, Dicarboxylates and Cyclic Polyols” (PLoS ONE, 2012)
